# Test results from ChEMBL document CHEMBL5252536, “Discovery of VU0467485/AZ13713945: An M4 PAM Evaluated as a Preclinical Candidate for the Treatment of Schizophrenia” (ACS Med Chem Lett, 2017).
# Legend:
# [1] = Terminal unbound brain concentration in rat model of amphetamine-induced hyperlocomotion activity at 1 to 10 mg/kg, po measured after 1.5 hrs; assay type: ADME, organism-based; conditions: in vivo, dose 1-10 mg/kg
# [2] = Cmax in Sprague-Dawley rat at 3 mg/kg,po by LC-MS/MS analysis; assay type: ADME, organism-based; design: dose 3 mg/kg, route po; conditions: in vivo
# [3] = molecular target: T1, Cytochrome P450 3A4 (Homo sapiens, UniProt P08684); assay: Activation of CYP34A in human hepatocyte using midazolam as substrate preincubated for 5 days followed by substrate addition and measured after 1 hr by LC-MS/MS analysis; assay type: ADME, cell-based
# [4] = Genotoxicity in Salmonella typhimurium TA100 by Ames test; assay type: toxicity; conditions: salmonella enterica subsp. enterica serovar typhimurium
# [5] = molecular target: Cytochrome P450 2C19 (Homo sapiens, UniProt P33261); assay: […] of human CYP2C19 mediated drug metabolism incubated for 5 mins followed by NADPH addition measured after 1 hr by LC-UV/MS analysis relative to control; assay type: ADME; conditions: recombinant enzyme, 1.083 h, time 65 min
# [6] = molecular target: T2, Muscarinic acetylcholine receptor M2 (Rattus norvegicus, UniProt P10980); assay: Positive allosteric modulator activity at rat M2 receptor expressed in CHO cells co-expressing Gqi5 assessed as maximal response to ACh by calcium mobilization assay; assay type: cell-based
# T2 sequence (P10980 whole entry): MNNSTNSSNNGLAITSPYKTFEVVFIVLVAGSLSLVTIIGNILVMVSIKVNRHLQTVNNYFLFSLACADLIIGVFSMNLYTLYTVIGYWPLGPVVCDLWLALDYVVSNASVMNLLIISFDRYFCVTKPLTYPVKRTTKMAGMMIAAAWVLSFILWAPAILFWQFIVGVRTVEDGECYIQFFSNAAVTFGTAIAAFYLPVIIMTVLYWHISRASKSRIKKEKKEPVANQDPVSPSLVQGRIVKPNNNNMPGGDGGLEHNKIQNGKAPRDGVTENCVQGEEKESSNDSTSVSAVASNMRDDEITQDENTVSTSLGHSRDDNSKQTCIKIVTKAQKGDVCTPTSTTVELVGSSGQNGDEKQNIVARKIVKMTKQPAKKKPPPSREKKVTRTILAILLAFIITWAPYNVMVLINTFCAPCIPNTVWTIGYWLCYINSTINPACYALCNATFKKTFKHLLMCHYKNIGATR
# [7] = Ratio of drug concentration in Sprague-Dawley rat brain to plasma at 1 to 10 mg/kg, po by LC-MS/MS analysis; assay type: ADME, organism-based; conditions: dose 1-10 mg/kg, read-out: BPR
# [8] = Positive allosteric modulator activity at dog M2 receptor expressed in CHO cells co-expressing Gqi5 assessed as maximal response to ACh by calcium mobilization assay; assay type: cell-based
# [9] = Elimination half life in Sprague-Dawley rat at 3 mg/kg,po or 1 mg/kg,iv by LC-MS/MS analysis; assay type: ADME, organism-based; conditions: in vivo, read-out: beta t1/2 (converted)
# [10] = tested on: Rattus norvegicus; assay: Antipsychotic activity in amphetamine-induced hyperlocomotion activity in rat assessed as reversal of amphetamine-induced hyperlocomotion at 1 to 10 mg/kg, po preincubated for 30 mins followed by amphetamine addition and measured after 60 mins by open field test relative to control; assay type: functional; conditions: dose 1-10 mg/kg, time 90 min, 1.5 h
# [11] = Positive allosteric modulator activity at dog M4 receptor expressed in CHO cells co-expressing Gqi5 in presence of EC20 concentration of acetylcholine by calcium mobilization assay; assay type: cell-based
# [12] = Volume of distribution at steady state in Beagle dog at 3 mg/kg,po or 1 mg/kg,iv by LC-MS/MS analysis; assay type: ADME, organism-based, Canis lupus familiaris; conditions: in vivo
# [13] = Aqueous solubility of compound at pH 7.4; assay type: physicochemical; conditions: buffer
# [14] = molecular target: T1, Cytochrome P450 3A4; assay: […] of human CYP3A4 mediated drug metabolism incubated for 5 mins followed by NADPH addition measured after 1 hr by LC-UV/MS analysis relative to control; assay type: ADME; conditions: recombinant enzyme, 1.083 h, time 65 min
# [15] = Fraction unbound in rat brain incubated for 6 hrs by LC/MS/MS analysis; assay type: ADME, tissue-based
# [16] = Toxicity in rat assessed as effect on autonomical parameters at 56.6 mg/kg, po measured after 6 hrs by Irwin test; assay type: organism-based; conditions: in vivo
# [17] = Terminal unbound plasma concentration in rat model of amphetamine-induced hyperlocomotion activity at 1 to 10 mg/kg, po measured after 1.5 hrs; assay type: ADME, organism-based; conditions: in vivo, dose 1-10 mg/kg
# [18] = molecular target: T3, Muscarinic acetylcholine receptor M2 (Homo sapiens, UniProt P08172); assay: Positive allosteric modulator activity at human M2 receptor expressed in CHO cells co-expressing Gqi5 assessed as maximal response to ACh by calcium mobilization assay; assay type: cell-based
# T3 sequence (P08172 whole entry): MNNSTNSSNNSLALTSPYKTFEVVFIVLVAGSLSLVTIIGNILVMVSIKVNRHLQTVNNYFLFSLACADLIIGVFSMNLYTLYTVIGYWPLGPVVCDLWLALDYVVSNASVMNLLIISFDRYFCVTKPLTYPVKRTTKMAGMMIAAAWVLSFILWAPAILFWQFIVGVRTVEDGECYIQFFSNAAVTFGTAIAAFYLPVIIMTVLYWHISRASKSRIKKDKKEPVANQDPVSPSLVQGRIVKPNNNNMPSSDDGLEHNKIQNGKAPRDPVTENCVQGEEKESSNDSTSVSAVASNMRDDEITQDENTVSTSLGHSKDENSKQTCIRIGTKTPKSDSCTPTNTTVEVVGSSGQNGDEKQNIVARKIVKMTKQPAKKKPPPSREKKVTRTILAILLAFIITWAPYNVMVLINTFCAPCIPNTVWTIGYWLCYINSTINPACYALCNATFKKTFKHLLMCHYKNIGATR
# [19] = molecular target: Cytochrome P450 2D6 (Homo sapiens, UniProt P10635); assay: […] of human CYP2D6 mediated drug metabolism incubated for 5 mins followed by NADPH addition measured after 1 hr by LC-UV/MS analysis relative to control; assay type: ADME; conditions: recombinant enzyme, 1.083 h, time 65 min
# [20] = AUC (0 to infinity) in Beagle dog at 3 mg/kg,po by LC-MS/MS analysis; assay type: ADME, organism-based, Canis lupus familiaris; design: dose 3 mg/kg, route po; conditions: in vivo
# [21] = tested on: Rattus norvegicus; assay: Antipsychotic activity in amphetamine-induced hyperlocomotion activity in rat assessed as minimum effective dose at 1 administered orally preincubated for 30 mins followed by amphetamine addition and measured after 60 mins by open field test; assay type: functional; conditions: 1.5 h, route po, time 90 min, read-out: MED
# [22] = Plasma protein binding in rat assessed as unbound fraction incubated for 4 hrs by LC/MS/MS analysis; assay type: ADME, cell-free
# [23] = tested on: Rattus norvegicus; assay: Antipsychotic activity in MK-801-induced hyperlocomotion activity in rat assessed as minimum effective dose administered orally preincubated for 30 mins followed by MK-801 addition and measured after 60 mins by open field test; assay type: functional; conditions: 1.5 h, route po, time 90 min, read-out: MED
# T1 sequence (P08684 whole entry): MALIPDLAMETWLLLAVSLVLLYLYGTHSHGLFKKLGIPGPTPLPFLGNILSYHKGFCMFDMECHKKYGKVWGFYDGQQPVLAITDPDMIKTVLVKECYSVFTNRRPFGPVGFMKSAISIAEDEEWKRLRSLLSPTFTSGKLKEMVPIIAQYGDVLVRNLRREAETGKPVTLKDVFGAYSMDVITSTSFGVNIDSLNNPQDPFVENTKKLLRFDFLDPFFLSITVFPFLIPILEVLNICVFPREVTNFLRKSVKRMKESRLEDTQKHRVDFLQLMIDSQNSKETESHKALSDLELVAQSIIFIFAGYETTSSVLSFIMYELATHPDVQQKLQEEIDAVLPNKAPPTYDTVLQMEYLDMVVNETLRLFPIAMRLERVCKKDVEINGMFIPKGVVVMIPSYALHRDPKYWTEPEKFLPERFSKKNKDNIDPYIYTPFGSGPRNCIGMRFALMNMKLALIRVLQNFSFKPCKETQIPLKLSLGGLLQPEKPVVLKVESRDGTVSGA
# Cytochrome P450 2C19, sequence (P33261 whole entry): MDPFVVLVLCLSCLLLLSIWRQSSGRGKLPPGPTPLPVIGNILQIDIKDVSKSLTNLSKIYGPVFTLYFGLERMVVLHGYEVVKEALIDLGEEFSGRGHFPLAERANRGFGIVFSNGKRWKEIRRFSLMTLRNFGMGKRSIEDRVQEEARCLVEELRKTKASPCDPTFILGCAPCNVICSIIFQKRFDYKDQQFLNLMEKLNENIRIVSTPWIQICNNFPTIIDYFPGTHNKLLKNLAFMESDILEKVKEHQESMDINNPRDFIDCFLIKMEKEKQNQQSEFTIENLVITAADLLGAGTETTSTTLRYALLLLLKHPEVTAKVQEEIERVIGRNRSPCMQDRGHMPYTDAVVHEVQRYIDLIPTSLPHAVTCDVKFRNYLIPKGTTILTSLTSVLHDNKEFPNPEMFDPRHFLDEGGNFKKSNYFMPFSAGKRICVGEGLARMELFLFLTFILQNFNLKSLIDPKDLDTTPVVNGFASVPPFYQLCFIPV
# Cytochrome P450 2D6, sequence (P10635 whole entry): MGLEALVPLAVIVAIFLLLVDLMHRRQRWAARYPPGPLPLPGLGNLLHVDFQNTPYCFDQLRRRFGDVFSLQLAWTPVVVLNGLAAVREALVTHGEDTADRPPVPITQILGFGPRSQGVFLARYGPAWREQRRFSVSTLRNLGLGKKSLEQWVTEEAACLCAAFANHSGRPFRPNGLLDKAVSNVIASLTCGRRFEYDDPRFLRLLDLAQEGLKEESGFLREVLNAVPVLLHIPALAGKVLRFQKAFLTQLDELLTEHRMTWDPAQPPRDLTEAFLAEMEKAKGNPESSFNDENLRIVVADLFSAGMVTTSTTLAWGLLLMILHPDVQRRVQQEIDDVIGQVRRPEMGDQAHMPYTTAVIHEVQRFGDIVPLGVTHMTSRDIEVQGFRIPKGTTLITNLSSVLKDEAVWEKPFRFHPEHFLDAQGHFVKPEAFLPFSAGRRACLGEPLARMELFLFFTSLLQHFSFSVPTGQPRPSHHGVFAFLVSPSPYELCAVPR
compound,measurement,setting,value
COc1ccc(CNC(=O)c2sc3nnc(C)c(C)c3c2N)cc1F,Drug uptake(free),[1],0.02 µM
same,Cmax,[2],1200 nM
same,EC50,[3],> 50 µM
same,Activity,[4],Non-Toxic
same,Activity,[5],31.2%
same,EC50,[6],> 30 µM
same,Kp,[7],0.31
same,EC50,[8],> 30 µM
same,half-life,[9],4.2 h
same,Activity,[10],43.2%
same,EC50,[11],0.087 µM
same,Vdss,[12],1.5 L/kg
same,solubility,[13],2.4 µM
same,Activity,[14],43.7%
same,fraction unbound at 6 h,[15],0.037
same,Activity,[16],Non-Toxic
same,Cp(f),[17],60 nM
same,EC50,[18],> 30 µM
same,Activity,[19],0.2%
same,AUC(0-inf),[20],0.59 µM·h
same,minimal effective dose,[21],10 mg/kg
same,fraction unbound at 4 h,[22],0.031
same,minimal effective dose,[23],30 mg/kg
